Data published in patent publication EP2966448B1, “METHOD FOR THE PREDICTION OR PROGNOSIS OF THE RESPONSE OF A HUMAN SUBJECT SUFFERING FROM CANCER TO TREATMENT WITH AN ANTAGONIST OF THE NK1 RECEPTOR” (priority 2013, dated 2014).
Where two headings read alike, the source gives them in different places.

Key:
Gastric carcinoma = assay: Inhibition of primary tumor cell cultures (48 hours) vs NK1 receptor immunostaining (Example 1); type: cell-based; conditions: Homo sapiens, 1 micromolar, read-out: Percentage of inhibition of cell cultures
Procedure: (§1) Cell cultures. To obtain tumor cells from human primary tumors we used the method described in De Bari et al. (De Bari et al. 2001). Briefly, small pieces of the tumors were digested into a hyaluronidase solution (Sigma-Aldrich, USA) at a concentration of 1 mg/ml during 15 minutes at 37°C, and then they were treated with 6 mg/ml of collagenase type IV (Invitrogen) during 2 hours at 37°C. Consecutively, cells were washed, and resuspended in the DMEM culture medium with high concentration of glucose (Dulbecco's Modified Eagle's Medium, Invitrogen) supplemented with 1% of antibiotics-antimycotics (Invitrogen) and with 1% of sodium pyruvate (Invitrogen), and the cells were seeded in culture slides at a concentration of 10.000 cells per square centimeter. When cells reached confluence, the adherent cells were separated using sterile trypsin at 0,5% (Invitrogen) and they were used among passages 3 and 9. For the assays shown next, tumor cells were seeded on slides at a concentration of 25.000 cells per well. A total of 6 wells containing the tumor cells were used as survival control. […] All the cultures were kept during 48 hours and later on recollected for their analysis.
(§2) Immunohistochemistry techniques. The presence of NK1 receptors was also analyzed using immunohistochemistry techniques. Briefly, a sample of each of the cultures of the cell lines used in the present invention, was centrifuged (5 minutes at 1.500 rpm) and the pellet obtained was dehydrated using increasing concentrations of ethanol and, finally, xylol. Then, said dehydrated samples were embedded in paraffin, creating a block of cells. Such paraffin blocks were cut with a microtome at 5 microns thickness, and were placed on microscope slides adequate to perform immunohistochemistry techniques. Consecutively, they were de-paraffinized by immersing them in xylol, to be finally hydrated using a solution containing decreasing concentrations of ethanol, and finally submerged them into water. […] After this, the samples were left to cool down at room temperature for 10 minutes. The endogenous peroxidase activity was blocked with 3% peroxide of hydrogen for 30 minutes at room temperature. After washing the samples with 0.05 M of Tris buffer, they were incubated with 10% non-immune pork serum at for 30 minutes at room temperature. To analyze the expression of NK1 receptors, the cellular samples were incubated in the presence of anti-NK1 antibodies (S8305, Sigma-Aldrich) diluted 1:1000, overnight at 4°C. Afterwards, the samples were washed in Tris buffer 0.05 M at room temperature. The next step was the addition of Envision System-HRP (Dako) reagents for 30 minutes at room temperature. Then, the samples were washed again in Tris buffer 0.05 M and the immunoreactivity was visualized through light microscopy with a chromogenic solution containing 3,3'-Diaminobenzidine (DAB+; Dako, USA). To differentiate the cell nuclei, they were slightly stained with hematoxylin. As negative control, it was used samples not incubated with the primary antibody anti-NK1, which was replaced by non-immune serum. All the samples were evaluated.
(§3) To value the immunostaining in each of the cases six cuts were performed to be analyzed by the immunohistochemistry technique. In each of the six cuts, it was counted cells in 20 fields (magnification 400x) using an Olympus microscope (model CX31). In each field it was counted the total number of cells and the number of cells presenting immunostaining, calculating afterwards the percentage of cells which presented immunostaining.

Pancreatic carcinoma = assay: as above; type: cell-based; conditions: Homo sapiens, 1 micromolar, read-out: Percentage of inhibition of cell cultures
Procedure: as §1, §2, §3

Renal cell carcinoma = assay: as above; type: cell-based; conditions: Homo sapiens, 1 micromolar, read-out: Percentage of inhibition of cell cultures
Procedure: as §1, §2, §3

Breast carcinoma = assay: as above; type: cell-based; conditions: Homo sapiens, 1 micromolar, read-out: Percentage of inhibition of cell cultures
Procedure: as §1, §2, §3

[1] = test system: Thyroid carcinoma (folliculary type); assay: as above; type: cell-based; conditions: Homo sapiens, 1 micromolar, read-out: Percentage of inhibition of cell cultures
Procedure: as §1, §2, §3

[2] = test system: Malignant Fibrous Histiocytoma; assay: as above; type: cell-based; conditions: Homo sapiens, 1 micromolar, read-out: Percentage of inhibition of cell cultures
Procedure: as §1, §2, §3

Ewing Sarcoma = assay: as above; type: cell-based; conditions: Homo sapiens, 1 micromolar, read-out: Percentage of inhibition of cell cultures
Procedure: as §1, §2, §3

Neuroblastoma = assay: as above; type: cell-based; conditions: Homo sapiens, 1 micromolar, read-out: Percentage of inhibition of cell cultures
Procedure: as §1, §2, §3

Non Hodgkin Lymphoma B = assay: as above; type: cell-based; conditions: Homo sapiens, 1 micromolar, read-out: Percentage of inhibition of cell cultures
Procedure: as §1, §2, §3

Myeloma = assay: as above; type: cell-based; conditions: Homo sapiens, 1 micromolar, read-out: Percentage of inhibition of cell cultures
Procedure: as §1, §2, §3

[3] = test system: Gastric carcinoma (Adenocarcinoma); assay: Inhibition of primary tumor cell cultures vs Kras mutation (Example 2); type: cell-based, human; conditions: Homo sapiens, Cases with Kras mutated; 100 micromolar; read-out: Percentage of inhibition of cell cultures
Procedure: (§4) Cell cultures. […] Briefly, small pieces of the tumors were digested into a hyaluronidase solution (Sigma-Aldrich, USA) at a concentration of 1 mg/ml during 15 minutes at 37°C, and then they were treated with 6 mg/ml of collagenase type IV (Invitrogen) during 2 hours at 37°C. Consecutively, cells were washed, and resuspended in the DMEM culture medium with high concentration of glucose (Dulbecco's Modified Eagle's Medium, Invitrogen) supplemented with 1% of antibiotics-antimycotics (Invitrogen) and with 1% of sodium pyruvate (Invitrogen), and the cells were seeded in culture slides at a concentration of 10.000 cells per square centimeter. When cells reached confluence, the adherent cells were separated using sterile trypsin at 0,5% (Invitrogen) and they were used among passages 3 and 9. For the assays shown next, tumor cells were seeded on slides at a concentration of 25.000 cells per well. A total of 6 wells containing the tumor cells were used as survival control. […] All the cultures were kept during 48 hours and later on recollected for their analysis.
(§5) In each case the presence or not of mutations in K-ras gene was determined.
(§6) To determine the existence of mutations in the K-ras gene DNA from cancer tumor cells was extracted from samples obtained from the different cancer tumor cells, using DNA extraction kits from Takara (Madison, WI, US) or Ambion (Huntingdon, Cambridgeshire, United Kingdom), following the manufacturer's instructions, and as it has been previously published (Di Fiore F, et al. 2007). Consecutively it was analyzed by sequencing the exon 2 of the KRAS gene, , by means of PCR amplification from previously extracted cancer tumor DNA, using the following sense primer (SEQ ID NO. 15): 5'-[sequence]-3' and anti-sense primer (SEQ ID NO. 16): 5'-[sequence]-3'. After the purification using the Qiagen extraction kit, the PCR products were sequenced using the Big Dye Terminator Kit V3.1 (Applied Biosystems, Foster City, CA, U.S.) and an ABI Prism 377 or 3100 DNA sequencer (Applied Biosystems). The presence of a heterozygous mutation in the KRAS gene in cancer tumor cells of the cultures was defined as the appearance of a mutant peak of a height of at least a third of the wild type. All the sequence analysis were executed at least twice in two independent PCR.
(§7) The antibody against NK1 receptor (Table 16) was used at 1/50 concentration. The percentages of inhibition are expressed in percentage of variation in relation to control ± standard deviation.

[4] = test system: Pancreatic carcinoma (Adenocarcinoma); assay: as above; type: cell-based, human; conditions: Homo sapiens, Cases with Kras mutated; 100 micromolar; read-out: Percentage of inhibition of cell cultures
Procedure: as §4, §5, §6, §7

[5] = test system: Ovarian carcinoma (Adenocarcinoma); assay: as above; type: cell-based, human; conditions: Homo sapiens, Cases with Kras mutated; 100 micromolar; read-out: Percentage of inhibition of cell cultures
Procedure: as §4, §5, §6, §7

Prostate carcinoma = assay: as above; type: cell-based, human; conditions: Homo sapiens, Cases with Kras mutated; 100 micromolar; read-out: Percentage of inhibition of cell cultures
Procedure: as §1, §5, §6
(§8) The percentages of inhibition are expressed in percentage of variation in relation to control ± standard deviation.

[6] = test system: Undifferentiated Pleomorphic Sarcoma (malignant fibrous histiocytoma grade 3); assay: as above; type: cell-based, human; conditions: Homo sapiens, Cases with Kras mutated; 100 micromolar; read-out: Percentage of inhibition of cell cultures
Procedure: as §1, §5, §6, §8

[7] = test system: human primary tumor cells; assay: Inhibition of primary tumor cell cultures vs low or high expression of the truncated form of NK1 receptor (Example 5; tumor type per table line); type: cell-based; conditions: 100 micromolar
Procedure: as §1
The presence of the truncated form of NK1 receptor was determined and then cells were cultured in presence of several antagonists of the NK1 receptor.
In each case the presence of the truncated form of the NK1 receptor was determined.
To determine the presence of the truncated form of the gene of NK1 receptor PCR technique was performed (Polymerase Chain Reaction). The extraction of RNA, amplifications of PCR, cycle conditions and quantitative analysis were executed as it has been previously described. The specific primers were the following: For the full-length NK1R receptor (NM_001058.3; forward (SEQ ID NO: 17)-: 5'-[sequence]-3 ' and reverse- (SEQ ID NO:18): 5'-[sequence]-3') and for the truncated NK1receptor (NM_015727.2; forward (SEQ ID NO: 19): 5'-[sequence]-3 and reverse (SEQ ID NO;20): 5'-[sequence]-3').
Cases were distributed in two groups: • Group A -low expression of the truncated form of NK1 receptor- for those cases wherein the expression of the truncated form of NK1 receptor was less than double the expression of the full length form of such receptor. • Group B -high expression of the truncated form of NK1 receptor- for those cases wherein the expression of the truncated form of the NK1 receptor was higher than double the expression of the full length form of such receptor.
The percentages of inhibition are expressed in percentage of variation in relation to the control ± standard deviation.

[8] = test system: human primary tumor cells; assay: Inhibition of primary tumor cell cultures vs amplification of the gene encoding the NK1 receptor (Example 6; tumor type per table line); type: cell-based; conditions: Non Hodgkin Lymphoma T (diffuse T cell lymphoma); Cases with amplification of the gene that encodes for the NK1 receptor; 100 micromolar
Procedure: as §4
The presence or absence of the amplification of the gene encoding for the NK1 receptor was determined, and then the cells were cultured in the presence of several antagonists of the NK1 receptor.
For each case, the presence or absence of amplification of the gene encoding for the NK1 receptor was determined.
In order to determine the presence of the amplification (increase in the number of copies) of the gene encoding the NK1 receptor (TAC1R), it was used the comparative genomic hybridization technique (CGH Array). Firstly genomic DNA was extracted from each case. Later, it was performed the marking and hybridization of the DNA of each sample together with DNA of a commercial reference without genomic alterations (from masculine or feminine sex, depending on the gender of the patient from whom the samples were obtained). The Array is Sureprint G3 Human CGH Microarray from the company Agilent was used, with an average separation between probes of 5.3Kb and 4.6Kb for the genes RefSeq. The reading of the microarray was done with the DNA Microarray Scanner G2565CA from Agilent, at a resolution of 3 µm. The analysis of the results was performed with the software Cytogenomics v 2.0.6.0 from Agilent with ADM-2: 6.0; Centralization: ON (Threshold: 6.0, Bin size: 10); Fuzzy zero: ON; Aberration filters: ON (minProbes=5 and minAvgAbsLopRatio= 0,5); Feature Level Filters : ON. The genomic coordinates are coincident with the NCBI36genome (hg18). Cases were distributed in two groups: Group I for those cases without the amplification of the gene encoding the NK1 receptor (locus 2p13.1-p12), and Group II for those cases with amplification of the gene encoding the NK1receptor (locus 2p13.1-p12).
The antibody against NK1 receptor (Table 36) was used at 1/50 concentration. The percentages of inhibition are expressed in percentages of variation in relation to control ± standard deviation.

[9] = NK1 receptor immunostaining Group 1 (less than 20% of the cells)
[10] = NK1 receptor immunostaining Group 2 (20-80% of the cells)
[11] = NK1 receptor immunostaining Group 3 (more than 80% of the cells)
[12] = NK1 receptor immunostaining Intensity grade 1
[13] = NK1 receptor immunostaining Intensity grade 2
[14] = NK1 receptor immunostaining Intensity grade 3

C[C@@H](O[C@H]1OCCN(Cc2n[nH]c(=O)[nH]2)[C@H]1c1ccc(F)cc1)c1cc(C(F)(F)F)cc(C(F)(F)F)c1 [Aprepitant]
inhibition at 1 µM (Gastric carcinoma; [9]): 10 ± 3%
inhibition at 1 µM (Gastric carcinoma; [10]): 45 ± 3%
inhibition at 1 µM (Gastric carcinoma; [11]): 92 ± 3%
inhibition at 1 µM (Gastric carcinoma; [12]): 25 ± 6%
inhibition at 1 µM (Gastric carcinoma; [13]): 57 ± 5%
inhibition at 1 µM (Gastric carcinoma; [14]): 96 ± 4%
inhibition at 1 µM (Pancreatic carcinoma; [9]): 12 ± 3%
inhibition at 1 µM (Pancreatic carcinoma; [10]): 47 ± 1%
inhibition at 1 µM (Pancreatic carcinoma; [11]): 94 ± 6%
inhibition at 1 µM (Pancreatic carcinoma; [12]): 27 ± 7%
inhibition at 1 µM (Pancreatic carcinoma; [13]): 56 ± 5%
inhibition at 1 µM (Pancreatic carcinoma; [14]): 94 ± 3%
inhibition at 1 µM (Renal cell carcinoma; [9]): 10 ± 3%
inhibition at 1 µM (Renal cell carcinoma; [10]): 45 ± 4%
inhibition at 1 µM (Renal cell carcinoma; [11]): 93 ± 6%
inhibition at 1 µM (Renal cell carcinoma; [12]): 27 ± 6%
inhibition at 1 µM (Renal cell carcinoma; [13]): 57 ± 6%
inhibition at 1 µM (Renal cell carcinoma; [14]): 95 ± 6%
inhibition at 1 µM (Breast carcinoma; [9]): 11 ± 1%
inhibition at 1 µM (Breast carcinoma; [10]): 46 ± 3%
inhibition at 1 µM (Breast carcinoma; [11]): 94 ± 5%
inhibition at 1 µM (Breast carcinoma; [12]): 28 ± 6%
inhibition at 1 µM (Breast carcinoma; [13]): 58 ± 5%
inhibition at 1 µM (Breast carcinoma; [14]): 95 ± 7%
inhibition at 1 µM [1, 9]: 10 ± 2%
inhibition at 1 µM [1, 10]: 45 ± 2%
inhibition at 1 µM [1, 11]: 97 ± 5%
inhibition at 1 µM [1, 12]: 26 ± 6%
inhibition at 1 µM [1, 13]: 57 ± 5%
inhibition at 1 µM [1, 14]: 95 ± 5%
inhibition at 1 µM [2, 9]: 11 ± 2%
inhibition at 1 µM [2, 10]: 47 ± 2%
inhibition at 1 µM [2, 11]: 95 ± 6%
inhibition at 1 µM [2, 12]: 28 ± 7%
inhibition at 1 µM [2, 13]: 56 ± 5%
inhibition at 1 µM [2, 14]: 94 ± 3%
inhibition at 1 µM (Ewing Sarcoma; [9]): 11 ± 2%
inhibition at 1 µM (Ewing Sarcoma; [10]): 48 ± 6%
inhibition at 1 µM (Ewing Sarcoma; [11]): 94 ± 6%
inhibition at 1 µM (Ewing Sarcoma; [12]): 27 ± 6%
inhibition at 1 µM (Ewing Sarcoma; [13]): 57 ± 4%
inhibition at 1 µM (Ewing Sarcoma; [14]): 95 ± 6%
inhibition at 1 µM (Neuroblastoma; [9]): 10 ± 3%
inhibition at 1 µM (Neuroblastoma; [10]): 44 ± 5%
inhibition at 1 µM (Neuroblastoma; [11]): 97 ± 5%
inhibition at 1 µM (Neuroblastoma; [12]): 27 ± 6%
inhibition at 1 µM (Neuroblastoma; [13]): 57 ± 6%
inhibition at 1 µM (Neuroblastoma; [14]): 97 ± 5%
inhibition at 1 µM (Non Hodgkin Lymphoma B; [9]): 10 ± 2%
inhibition at 1 µM (Non Hodgkin Lymphoma B; [10]): 47 ± 4%
inhibition at 1 µM (Non Hodgkin Lymphoma B; [11]): 96 ± 5%
inhibition at 1 µM (Non Hodgkin Lymphoma B; [12]): 27 ± 5%
inhibition at 1 µM (Non Hodgkin Lymphoma B; [13]): 55 ± 5%
inhibition at 1 µM (Non Hodgkin Lymphoma B; [14]): 97 ± 6%
inhibition at 1 µM (Myeloma; [9]): 11 ± 2%
inhibition at 1 µM (Myeloma; [10]): 46 ± 5%
inhibition at 1 µM (Myeloma; [11]): 95 ± 4%
inhibition at 1 µM (Myeloma; [12]): 28 ± 5%
inhibition at 1 µM (Myeloma; [13]): 55 ± 3%
inhibition at 1 µM (Myeloma; [14]): 92 ± 5%
inhibition at 100 µM [3]: 24 ± 3%
inhibition at 100 µM [4]: 22 ± 4%
inhibition at 100 µM [5]: 24 ± 5%
inhibition at 100 µM (Prostate carcinoma): 24 ± 3%
inhibition at 100 µM [6]: 24 ± 3%
Percentage of inhibition of cell cultures ([7]; Non Hodgkin Lymphoma B (diffuse B cell lymphoma), Cases with low expression of the truncated form of NK1 receptor (Group A)): 23±4 percentage
Percentage of inhibition of cell cultures ([7]; Non Hodgkin Lymphoma T (diffuse T cell lymphoma), Cases with high expression of the truncated form of NK1 receptor (Group B)): 98±6 percentage
Percentage of inhibition of cell cultures ([7]; Ovarian carcinoma (Adenocarcinoma), Cases with low expression of the truncated form of NK1 receptor (Group A)): 29±3 percentage
Percentage of inhibition of cell cultures [8]: 94±7 percentage
